Experimental data as given in patent publication US9982019B2, “Glycopeptide compound or pharmaceutical salt thereof and method for preparing same, and pharmaceutical compositions and applications thereof” (priority 2012, dated 2018).

Tests used:
[1] = test system: Feces enterococci (VSE clinical isolates: MEFA 0039); test: In vitro antibacterial activity, agar two times dilution method, MIC; format: cell-based; settings: agar dilution; VSE clinical isolate MEFA 0039
Description: (§1) Testing results of in vitro antibacterial activity of some target compounds of the present invention are as follows:
(§2) Drugs: firstly being dissolved in DMSO, and then being diluted to an appropriate concentration with sterile water, and afterwards successively being diluted for twice.
(§3) Determination: referencing the standard of CSSI 2008 version, using a agar two times dilution method, determine the minimum inhibitory concentration (MIC values).
(§4) Feces enterococci (VSE clinical isolates: MEFA 0039); Streptococcus pneumoniae (PISP: ATCC 49619).
(§5) 3. Positive Control Drug is Vancomycin Hydrochloride.

[2] = test system: Streptococcus pneumoniae (PISP: ATCC 49619); test: as above; format: cell-based; settings: for MIC Values of Compounds, Streptococcus pneumoniae: agar dilution, PISP ATCC 49619; for activity against streptococcus pneumoniae relative to vancomycin: compared with positive control vancomycin
Description: as §1, §2, §3, §4, §5

Compound | MIC Values of Compounds, Enterococci [1] | MIC Values of Compounds, Streptococcus pneumoniae [2] | activity against streptococcus pneumoniae relative to vancomycin [2]
CNC(CC(C)C)C(=O)NC1C(=O)NC(CC(N)=O)C(=O)NC2C(=O)NC3C(=O)NC(C(=O)NC(C(=O)O)c4cc(O)c(CN5CCOCC5)c(O)c4-c4cc3ccc4O)C(OC3CC(C)(N)C(O)C(C)O3)c3ccc(c(Cl)c3)Oc3cc2cc(c3OC2OC(CO)C(O)C(O)C2OC2CC(C)(NCc3ccccc3Br)C(O)C(C)O2)Oc2ccc(cc2Cl)C1O (centres unmarked) [Compound I5] | 0.25 µg/mL | 0.125 µg/mL | –
CCN(CC)Cc1c(O)cc2c(c1O)-c1cc(ccc1O)C1NC(=O)C3NC(=O)C(CC(N)=O)NC(=O)C(NC(=O)C(CC(C)C)NC)C(O)c4ccc(c(Cl)c4)Oc4cc3cc(c4OC3OC(CO)C(O)C(O)C3OC3CC(C)(NCc4ccc(Br)cc4)C(O)C(C)O3)Oc3ccc(cc3Cl)C(OC3CC(C)(N)C(O)C(C)O3)C(NC1=O)C(=O)NC2C(=O)O (centres unmarked) [Compound I10] | 2 µg/mL | 0.25 µg/mL | –
CCN(CC)Cc1c(O)cc2c(c1O)-c1cc(ccc1O)C1NC(=O)C3NC(=O)C(CC(N)=O)NC(=O)C(N4CN(C)C(CC(C)C)C4=O)C(O)c4ccc(c(Cl)c4)Oc4cc3cc(c4OC3OC(CO)C(O)C(O)C3OC3CC(C)(NCc4ccccc4Br)C(O)C(C)O3)Oc3ccc(cc3Cl)C(OC3CC(C)(N)C(O)C(C)O3)C(NC1=O)C(=O)NC2C(=O)O (centres unmarked) [II2] | 2 µg/mL | 0.5 µg/mL | –
CNC(CC(C)C)C(=O)NC1C(=O)NC(CC(N)=O)C(=O)NC2C(=O)NC3C(=O)NC(C(=O)NC(C(=O)O)c4cc(O)c(CN5CCOCC5)c(O)c4-c4cc3ccc4O)C(OC3CC(C)(N)C(O)C(C)O3)c3ccc(c(Cl)c3)Oc3cc2cc(c3OC2OC(CO)C(O)C(O)C2OC2CC(C)(N)C(O)C(C)O2)Oc2ccc(cc2Cl)C1O (centres unmarked) [Compound I2] | 0.5 µg/mL | 0.063 µg/mL | –
CNC(CC(C)C)C(=O)NC1C(=O)NC(CC(N)=O)C(=O)NC2C(=O)NC3C(=O)NC(C(=O)NC(C(=O)O)c4cc(O)c(CNCP(=O)(O)O)c(O)c4-c4cc3ccc4O)C(OC3CC(C)(N)C(O)C(C)O3)c3ccc(c(Cl)c3)Oc3cc2cc(c3OC2OC(CO)C(O)C(O)C2OC2CC(C)(N)C(O)C(C)O2)Oc2ccc(cc2Cl)C1O (centres unmarked) [Compound I1] | 0.5 µg/mL | 0.125 µg/mL | –
CNC(CC(C)C)C(=O)NC1C(=O)NC(CC(N)=O)C(=O)NC2C(=O)NC3C(=O)NC(C(=O)NC(C(=O)O)c4cc(O)c(CN5CCOCC5)c(O)c4-c4cc3ccc4O)C(OC3CC(C)(N)C(O)C(C)O3)c3ccc(c(Cl)c3)Oc3cc2cc(c3OC2OC(CO)C(O)C(O)C2OC2CC(C)(NCc3ccc(OC)cc3)C(O)C(C)O2)Oc2ccc(cc2Cl)C1O (centres unmarked) [Compound I12] | 2 µg/mL | 1 µg/mL | –
CCN(CC)Cc1c(O)cc2c(c1O)-c1cc(ccc1O)C1NC(=O)C3NC(=O)C(CC(N)=O)NC(=O)C(N4CN(C)C(CC(C)C)C4=O)C(O)c4ccc(c(Cl)c4)Oc4cc3cc(c4OC3OC(CO)C(O)C(O)C3OC3CC(C)(NCc4ccc(OC)cc4)C(O)C(C)O3)Oc3ccc(cc3Cl)C(OC3CC(C)(N)C(O)C(C)O3)C(NC1=O)C(=O)NC2C(=O)O (centres unmarked) [II8] | 1 µg/mL | 0.25 µg/mL | –
CNC(CC(C)C)C(=O)NC1C(=O)NC(CC(N)=O)C(=O)NC2C(=O)NC3C(=O)NC(C(=O)NC(C(=O)O)c4cc(O)c(CN5CCOCC5)c(O)c4-c4cc3ccc4O)C(OC3CC(C)(N)C(O)C(C)O3)c3ccc(c(Cl)c3)Oc3cc2cc(c3OC2OC(CO)C(O)C(O)C2OC2CC(C)(NCc3ccc(C(C)C)cc3)C(O)C(C)O2)Oc2ccc(cc2Cl)C1O (centres unmarked) [Compound I13] | 1 µg/mL | 0.25 µg/mL | –
CCCCNCc1c(O)cc2c(c1O)-c1cc(ccc1O)C1NC(=O)C3NC(=O)C(CC(N)=O)NC(=O)C(N4CN(C)C(CC(C)C)C4=O)C(O)c4ccc(c(Cl)c4)Oc4cc3cc(c4OC3OC(CO)C(O)C(O)C3OC3CC(C)(N)C(O)C(C)O3)Oc3ccc(cc3Cl)C(OC3CC(C)(N)C(O)C(C)O3)C(NC1=O)C(=O)NC2C(=O)O (centres unmarked) [II1] | 0.25 µg/mL | 0.125 µg/mL | –
CNC(CC(C)C)C(=O)NC1C(=O)NC(CC(N)=O)C(=O)NC2C(=O)NC3C(=O)NC(C(=O)NC(C(=O)O)c4cc(O)c(CN5CCOCC5)c(O)c4-c4cc3ccc4O)C(OC3CC(C)(N)C(O)C(C)O3)c3ccc(c(Cl)c3)Oc3cc2cc(c3OC2OC(CO)C(O)C(O)C2OC2CC(C)(NCc3ccc(Br)cc3)C(O)C(C)O2)Oc2ccc(cc2Cl)C1O (centres unmarked) [Compound I9] | 0.25 µg/mL | ≤0.031 µg/mL | more four times than vancomycin
CCN(CC)Cc1c(O)cc2c(c1O)-c1cc(ccc1O)C1NC(=O)C3NC(=O)C(CC(N)=O)NC(=O)C(N4CN(C)C(CC(C)C)C4=O)C(O)c4ccc(c(Cl)c4)Oc4cc3cc(c4OC3OC(CO)C(O)C(O)C3OC3CC(C)(NCc4ccc(Br)cc4)C(O)C(C)O3)Oc3ccc(cc3Cl)C(OC3CC(C)(N)C(O)C(C)O3)C(NC1=O)C(=O)NC2C(=O)O (centres unmarked) [II7] | 1 µg/mL | 0.25 µg/mL | –
CCCCNCc1c(O)cc2c(c1O)-c1cc(ccc1O)C1NC(=O)C3NC(=O)C(CC(N)=O)NC(=O)C(N4CN(C)C(CC(C)C)C4=O)C(O)c4ccc(c(Cl)c4)Oc4cc3cc(c4OC3OC(CO)C(O)C(O)C3OC3CC(C)(NCc4cccc(Br)c4)C(O)C(C)O3)Oc3ccc(cc3Cl)C(OC3CC(C)(N)C(O)C(C)O3)C(NC1=O)C(=O)NC2C(=O)O (centres unmarked) [II5] | 1 µg/mL | 0.25 µg/mL | –
CNC(CC(C)C)C(=O)NC1C(=O)NC(CC(N)=O)C(=O)NC2C(=O)NC3C(=O)NC(C(=O)NC(C(=O)O)c4cc(O)c(CN5CCOCC5)c(O)c4-c4cc3ccc4O)C(OC3CC(C)(N)C(O)C(C)O3)c3ccc(c(Cl)c3)Oc3cc2cc(c3OC2OC(CO)C(O)C(O)C2OC2CC(C)(NCc3cccc(Br)c3)C(O)C(C)O2)Oc2ccc(cc2Cl)C1O (centres unmarked) [Compound I8] | 0.25 µg/mL | 0.063 µg/mL | –
CCN(CC)Cc1c(O)cc2c(c1O)-c1cc(ccc1O)C1NC(=O)C3NC(=O)C(CC(N)=O)NC(=O)C(N4CN(C)C(CC(C)C)C4=O)C(O)c4ccc(c(Cl)c4)Oc4cc3cc(c4OC3OC(CO)C(O)C(O)C3OC3CC(C)(NCc4cccc(Br)c4)C(O)C(C)O3)Oc3ccc(cc3Cl)C(OC3CC(C)(N)C(O)C(C)O3)C(NC1=O)C(=O)NC2C(=O)O (centres unmarked) [II4] | 2 µg/mL | 0.25 µg/mL | –
CCN(CC)Cc1c(O)cc2c(c1O)-c1cc(ccc1O)C1NC(=O)C3NC(=O)C(CC(N)=O)NC(=O)C(NC(=O)C(CC(C)C)NC)C(O)c4ccc(c(Cl)c4)Oc4cc3cc(c4OC3OC(CO)C(O)C(O)C3OC3CC(C)(NCc4ccccc4Br)C(O)C(C)O3)Oc3ccc(cc3Cl)C(OC3CC(C)(N)C(O)C(C)O3)C(NC1=O)C(=O)NC2C(=O)O (centres unmarked) [Compound I6] | 1 µg/mL | 0.25 µg/mL | –
CC(C)CC1C(=O)N(C2C(=O)NC(CC(N)=O)C(=O)NC3C(=O)NC4C(=O)NC(C(=O)NC(C(=O)O)c5cc(O)c(CN6CCOCC6)c(O)c5-c5cc4ccc5O)C(OC4CC(C)(N)C(O)C(C)O4)c4ccc(c(Cl)c4)Oc4cc3cc(c4OC3OC(CO)C(O)C(O)C3OC3CC(C)(NCc4ccc(C(C)C)cc4)C(O)C(C)O3)Oc3ccc(cc3Cl)C2O)CN1C (centres unmarked) [II9] | 1 µg/mL | 0.25 µg/mL | –
CCCCNCc1c(O)cc2c(c1O)-c1cc(ccc1O)C1NC(=O)C3NC(=O)C(CC(N)=O)NC(=O)C(N4CN(C)C(CC(C)C)C4=O)C(O)c4ccc(c(Cl)c4)Oc4cc3cc(c4OC3OC(CO)C(O)C(O)C3OC3CC(C)(NCc4ccccc4Br)C(O)C(C)O3)Oc3ccc(cc3Cl)C(OC3CC(C)(N)C(O)C(C)O3)C(NC1=O)C(=O)NC2C(=O)O (centres unmarked) [II3] | 2 µg/mL | 0.25 µg/mL | –
CCCCCCCCCCNC1(C)CC(OC2c3ccc(c(Cl)c3)Oc3cc4cc(c3OC3OC(CO)C(O)C(O)C3OC3CC(C)(NCCCCCCCCCC)C(O)C(C)O3)Oc3ccc(cc3Cl)C(O)C(NC(=O)C(CC(C)C)N(C)CCCCCCCCCC)C(=O)NC(CC(N)=O)C(=O)NC4C(=O)NC3C(=O)NC2C(=O)NC(C(=O)O)c2cc(O)c(CNCCCC)c(O)c2-c2cc3ccc2O)OC(C)C1O (centres unmarked) [Compound I4] | >8 µg/mL | >8 µg/mL | –
CCCCNCc1c(O)cc2c(c1O)-c1cc(ccc1O)C1NC(=O)C3NC(=O)C(CC(N)=O)NC(=O)C(NC(=O)C(CC(C)C)NC)C(O)c4ccc(c(Cl)c4)Oc4cc3cc(c4OC3OC(CO)C(O)C(O)C3OC3CC(C)(NCc4ccc(C(C)C)cc4)C(O)C(C)O3)Oc3ccc(cc3Cl)C(OC3CC(C)(N)C(O)C(C)O3)C(NC1=O)C(=O)NC2C(=O)O (centres unmarked) [Compound I14] | 0.5 µg/mL | ≤0.031 µg/mL | more four times than vancomycin
CC(C)CC1C(=O)N(C2C(=O)NC(CC(N)=O)C(=O)NC3C(=O)NC4C(=O)NC(C(=O)NC(C(=O)O)c5cc(O)c(CN6CCOCC6)c(O)c5-c5cc4ccc5O)C(OC4CC(C)(N)C(O)C(C)O4)c4ccc(c(Cl)c4)Oc4cc3cc(c4OC3OC(CO)C(O)C(O)C3OC3CC(C)(NCc4cccc(Br)c4)C(O)C(C)O3)Oc3ccc(cc3Cl)C2O)CN1C (centres unmarked) [II6] | 2 µg/mL | 0.25 µg/mL | –
CCCCNCc1c(O)cc2c(c1O)-c1cc(ccc1O)C1NC(=O)C3NC(=O)C(CC(N)=O)NC(=O)C(NC(=O)C(CC(C)C)NC)C(O)c4ccc(c(Cl)c4)Oc4cc3cc(c4OC3OC(CO)C(O)C(O)C3OC3CC(C)(NCc4ccc(Br)cc4)C(O)C(C)O3)Oc3ccc(cc3Cl)C(OC3CC(C)(N)C(O)C(C)O3)C(NC1=O)C(=O)NC2C(=O)O (centres unmarked) [Compound I11] | 1 µg/mL | 0.25 µg/mL | –
